Test results: EP0231622B1, “Inhibition of the 5-lipoxygenase pathway” (priority 1985, dated 1987)
Read-outs that look alike come from different tables or passages of the source. Marks after values point to notes of the source that are not given here. One block for each compound: values may come before it.

Experiments:
[1] = test system: Arachidonic Acid-Induced Inflammation of the Mouse Ear; assay: Arachidonic acid-induced mouse ear inflammation; type: in vivo, Balb/c mice; conditions: for % Inhibition of Ear Swelling: Table 7A, 50 mg/kg s.c. or i.p., NS = not significant; for % Change / Increase in Ear Thickness at 1 Hour (x 10⁻³ cm): Table 7, p.o.
Source text: (§1) In the following Examples where mice were used, they were male Balb/c mice (20-28 g), and where rats were used, they were male Lewis rats (180-210 g). All mice and rats were obtained from Charles River Breeding Laboratories, Kingston, N.Y. Within a single experiment, mice and rats were sex and age matched.
(§2) The compounds of Formula (IA) were used either as the free base or in the appropriate salt form. Levamisole was used as the hydrochloride salt. The compounds were homogenized in 0.5% tragacanth. Compounds were administered by gavage at the indicated dose in a final volume of 10 ml/kg. Nordihydroguaiaretic acid (NDGA) was solubilized in dimethylacetamide and diluted with olive oil for subcutaneous administration.
Arachidonic acid in acetone (2 mg/20 ul) was applied to the inner surface of the left ear. The thickness of both ears was then measured with a dial micrometer one hour after treatment, and the data were expressed as the change in thickness (10⁻³ cm) between treated and untreated ears.
Test compounds were given orally in 0.5% tragacanth at the times indicated in the text prior to the topical application of arachidonic acid.
Parenteral administration of compound was accomplished by subcutaneous injection of solution as indicated.

[2] = test system: Production of PGE₂ by Mouse Peritoneal Exudate Cells; assay: PGE2 production by peritoneal macrophages; type: cell-based
Method: (§3) For in vitro experiments, compounds were dissolved at appropriate concentrations in ethanol or DMSO (dimethylsulfoxide) (final concentration <1.0%) and then diluted to final concentrations using the buffers indicated in the text.
Mice were injected intraperitoneally with 350 »g Corynebacterium parvum and the peritoneal exudate cell population was harvested 12-14 days later by peritoneal lavage with cold phosphate-buffered saline, and resuspended in Eagles minimal essential medium supplemented with 5% fetal calf serum. […] Test compounds were added (100 ul) to bring the final volume to 1.0 ml. Lipopolysaccharide (5 »g/ml) was then added to stimulate PGE₂ synthesis. After incubation at 37°C for 2 hours, cell-free supernatants were harvested, placed in polypropylene tubes and frozen at -20°C until assayed for their PGE₂ content using a commercial radioimmunoassay kit. IC₅₀ is the concentration that inhibits 50% of control activity.

[3] = test system: Polymorphonuclear Leukocytes; assay: Mouse Carrageenan Peritonitis (PMN infiltration); type: in vivo, Balb/c mice
Source text: as §1, §2
Mice were pretreated with either the test compound or vehicle one hour before the intraperitoneal injection of a 1.0% carrageenan suspension in saline (0.2 ml/ mouse). Mice were sacrificed by cervical dislocation two hours after injection, and 3.0 ml of phosphate buffered saline, without Ca⁺⁺ or Mg⁺⁺, was injected into the peritoneum. Following massage, a 2.0 ml aliquot of the lavage fluid was removed, and the total cell count determined on a Coulter counter and differential cell count determined by microscopic examination of Giesma-stained slides.

[4] = molecular target: T1, 5-LO (Rattus norvegicus, UniProt P12527); assay: di-HETE production by RBL-1 high speed supernatant; type: biochemical; conditions: Table 9A; di-HETE production by RBL-1 high speed supernatant; read-out: 5-LO IC50
T1 construct: The activities of these enzymes in extracts of RBL-1 cells were assayed; host or cells: RBL-1 cells, disrupted by nitrogen cavitation; 10,000 x g or 100,000 x g supernatant
T1 sequence (P12527 1-673): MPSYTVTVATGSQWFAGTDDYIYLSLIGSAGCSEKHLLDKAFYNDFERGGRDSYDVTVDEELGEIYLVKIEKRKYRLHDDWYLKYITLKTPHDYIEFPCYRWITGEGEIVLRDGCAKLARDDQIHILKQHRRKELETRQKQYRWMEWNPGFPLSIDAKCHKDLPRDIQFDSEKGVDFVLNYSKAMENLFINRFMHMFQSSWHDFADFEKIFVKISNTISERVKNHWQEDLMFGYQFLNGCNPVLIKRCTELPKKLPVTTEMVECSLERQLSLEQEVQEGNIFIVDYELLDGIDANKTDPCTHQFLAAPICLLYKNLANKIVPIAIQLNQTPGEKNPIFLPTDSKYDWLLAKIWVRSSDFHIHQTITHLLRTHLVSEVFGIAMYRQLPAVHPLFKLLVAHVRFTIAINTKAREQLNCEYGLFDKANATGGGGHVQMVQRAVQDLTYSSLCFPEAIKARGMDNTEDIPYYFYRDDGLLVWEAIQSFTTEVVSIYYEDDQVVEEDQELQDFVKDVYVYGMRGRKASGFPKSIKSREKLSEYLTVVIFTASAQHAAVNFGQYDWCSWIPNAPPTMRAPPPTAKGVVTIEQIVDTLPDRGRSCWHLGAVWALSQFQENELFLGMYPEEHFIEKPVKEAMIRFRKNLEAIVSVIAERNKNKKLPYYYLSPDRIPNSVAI
Method: as §3
(§4) The activities of these enzymes in extracts of RBL-1 cells were assayed using the method of Jakschik and Lee, Nature, 287, 51-52 (1980). RBL-1 cells were obtained from the American Type Culture Collection (#CRL 1378) and were grown at 37°C (5% CO₂ in air) in spinner culture in MEM supplemented with 10% heat inactivated fetal calf serum. Harvested cells were washed with 50 mM sodium phosphate buffer, pH 7.0, containing 1 mM EDTA and 0.1% gelatin, resuspended in fresh buffer (5 x 10⁷ cells/ml) and disrupted by nitrogen cavitation using the Parr bomb at 750 psi for 10 min. The broken cell extract was then centrifuged at 10,000 x g for 20 minutes and the supernatant centrifuged at 100,000 x g for 60 minutes. Aliquots (0.25 mls) of the supernatant were preincubated with or without drugs for 10 min, after which 10 ul CaCl₂ (50 mM) was added and the reaction was initiated with 2.5 ul of 2.5 mM arachidonic acid-1-¹⁴C (final concentration was […]; specific activity 20,000 dpm/nmole). After incubation for 3 min at 37°C, the reaction was terminated by addition of 2 volumes (0.5 ml) ice cold acetone and the sample was allowed to deproteinize on ice for 10 min prior to centrifugation at 1,000 x g for 10 min. The deproteinized supernatant was adjusted to pH 3.5 with 2N formic acid and extracted with 2 volumes of ice cold ethyl acetate. The extracted samples were dried under argon, redissolved in ethyl acetate and applied to Whatman LK5D thin layer chromatography (TLC) plates which were developed using the A-9 solvent system [organic phase of ethyl acetate: 2,2,5-trimethylpentane:acetic acid: water (110:50:20:10)] described by Hamberg and Samuelsson, J. Biol. Chem., 241, 257-263 (1966). Arachidonic acid, 5-HETE, di-HETE and PGD₂ were quantified with a Berthold LB 2832 autoscanner.
(§5) The 5-lipoxygenase and LTA₄ synthetase activities were further studied under the following conditions. An additional centrifugation of the RBL-1 supernatant was run at 100,000 x g for 60 min, to remove the particulate cyclooxygenase activity. Sample incubation was done under conditions similar to those described above, i.e., 2 mM CaCl₂ and 25 uM arachidonic acid-1-¹⁴C, however, with an incubation time of 5 min at […]. Under these conditions, only the 5-lipoxygenase pathway metabolites were detectable. The 5-HETE and di-HETEs were formed at a linear rate, and […] amounts of the arachidonic acid-1-¹⁴C substrate were utilized.

[5] = molecular target: T2, 5-Lipoxygenase (Rattus norvegicus, UniProt P12527); assay: 5-HETE production by RBL-1 high speed supernatant; type: biochemical; conditions: Table 8A; RBL-1 high speed supernatant
T2 construct: The activities of these enzymes in extracts of RBL-1 cells were assayed; host or cells: RBL-1 cells, disrupted by nitrogen cavitation; 10,000 x g or 100,000 x g supernatant
T2 sequence (P12527 1-673): T1 sequence (P12527 1-673)
Method: as §3, §4, §5

[6] = Macrophage, read-out: IC₅₀ production of PGE₂ by inflammatory macrophages
[7] = Table 2, Experiment 1, 12.5 mg/kg, p.o.
[8] = Table 2, Experiment 1, 25 mg/kg, p.o.
[9] = Table 2, Experiment 1, 50 mg/kg, p.o.
[10] = Table 2, Experiment 2, 50 mg/kg, s.c.

Compound: CSc1ccc(-c2nc3n(c2-c2ccc(F)cc2)CCS3)cc1 [Compound 47]
% Inhibition of Ear Swelling [1]: 22*** %

IC50 [2, 6]: 500 nM
IC50 ([2]; Peritoneal macrophage, Table 10, LPS-stimulated, C. parvum-elicited peritoneal exudate cells, read-out: IC₅₀ (»M) production of PGE₂): 500 nM
Compound: CC(C)Cc1ccc(C(C)C(=O)O)cc1 (stereo not drawn) [Ibuprofen, reference compound]
% Change ([1]; 250 mg/kg): +20^b %
Increase in Ear Thickness at 1 Hour (x 10⁻³ cm) ([1]; 250 mg/kg): 30.8 ± 2.0 x 10⁻³ cm

Compound: C[C@@H]1C[C@H]2[C@@H]3CCC4=CC(=O)C=C[C@]4(C)[C@@]3(F)[C@@H](O)C[C@]2(C)[C@@]1(O)C(=O)CO [Dexamethasone]
% Change ([1]; 25 mg/kg, pretreated at 2 hrs): -35^c %
Increase in Ear Thickness at 1 Hour (x 10⁻³ cm) ([1]; 25 mg/kg, pretreated at 2 hrs): 18.2 ± 4.1 x 10⁻³ cm
% Change [3, 7]: -54^b %
PMN x 10⁻⁵/ml (mean ± S.D.) [3, 7]: 9.1 ± 2.0 x 10⁻⁵/ml
% Change [3, 8]: -55^b %
PMN x 10⁻⁵/ml (mean ± S.D.) [3, 8]: 8.8 ± 2.6 x 10⁻⁵/ml
% Change [3, 9]: -69^b %
PMN x 10⁻⁵/ml (mean ± S.D.) [3, 9]: 6.1 ± 1.5 x 10⁻⁵/ml

IC50 [4]: 32000 nM
IC50 [5]: 67000 nM
Compound: Fc1ccc(-c2nc3n(c2-c2ccncc2)CCC3)cc1 [Compound 39, 2-(4-fluorophenyl)-3-(4-pyridyl)-6,7-dihydro-[5H]-pyrrolo [1,2-a]imidazole]
% Inhibition of Ear Swelling [1]: 93%

Compound: COc1ccc(-c2nc3n(c2-c2ccncc2)CC[S+]3[O-])cc1 (stereo not drawn) [Compound 41]
% Inhibition of Ear Swelling [1]: 45*** %

Compound: CC(Cc1ccc(O)c(O)c1)C(C)Cc1ccc(O)c(O)c1 (stereo not drawn) [NDGA, Nordihydroguaiaretic acid]
% Change [3, 10]: 41^c %
PMN x 10⁻⁵/ml (mean ± S.D.) [3, 10]: 5.7 ± 2.1 x 10⁻⁵/ml

Compound: COc1ccc2cc([C@H](C)C(=O)O)ccc2c1 [Naproxen]
IC50 [2, 6]: 1800 nM
IC50 ([2]; Peritoneal macrophage, read-out: IC₅₀ (»M) production of PGE₂): 1800 nM
